Measured values reported in patent US20080009418A1, “Selective Inhibitors” (Alchemia LTD., priority 2004, published 2008).

Experiments:
Human neurokinin (NK1) = target: T1, Human neurokinin (NK1) (Homo sapiens, UniProt P25103); experiment: Radioligand binding, human neurokinin NK1 membranes, filtration, [125I]-Substance P; settings: compound at 10 μM; [125I]-Substance P
T1 construct: purchased Perkin Elmer Biosignal
Summary of the method: (§1)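 Filtration binding on cloned human receptor membranes (1 Unit/well), [125I]-Substance P for NK1 and [3H]-Diprenorphine for KOP, 1 h at room temperature. Filters PEI-presoaked, washed with cold 50 mM Tris-HCl pH 7.4, counted by scintillation; percent inhibition calculated, reference ligand defining non-specific binding.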

Human δ-opioid (DOP) = target: T2, Human δ-opioid (DOP) (Homo sapiens, UniProt P41143); experiment: Radioligand binding, human δ-opioid (DOP) membranes, FlashPlate, [3H]-Bremazocine; settings: compound at 10 μM; [3H]-Bremazocine
T2 construct: purchased Perkin Elmer Biosignal
Summary of the method: (§2)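 Cloned human receptor membranes were coated onto FlashPlate wells and incubated with radioligand and compound (added from a 0.5 mM DMSO daughter plate) for 1 hour at room temperature in the dark. Scintillation counting gave percent inhibition, with DMSO defining total and reference ligand defining non-specific binding.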

Human μ-opioid (MOP) = target: T3, Human μ-opioid (MOP) (Homo sapiens, UniProt P35372); experiment: Radioligand binding, human μ-opioid (MOP) membranes, FlashPlate, [3H]-Naloxone; settings: compound at 10 μM; [3H]-Naloxone
T3 construct: purchased Perkin Elmer Biosignal
Summary of the method: as §2

Human opioid (ORL1) = target: T4, Human opioid (ORL1) (Homo sapiens, UniProt P41146); experiment: Radioligand binding, human opioid ORL1 membranes, FlashPlate, [125I]-Nociceptin; settings: compound at 10 μM; [125I]-Nociceptin
T4 construct: purchased Perkin Elmer Biosignal
Summary of the method: as §2

Human κ-Opioid (KOP) = target: T5, Human κ-Opioid (KOP) (Homo sapiens, UniProt P41145); experiment: Radioligand binding, human κ-opioid (KOP) membranes, filtration, [3H]-Diprenorphine; settings: compound at 10 μM; [3H]-Diprenorphine
T5 construct: purchased Perkin Elmer Biosignal
Summary of the method: as §1

[1] = target: T6, Human melanin-concentrating hormone (MCH1) (Homo sapiens, UniProt Q99705); experiment: Radioligand binding, human melanin-concentrating hormone MCH1 membranes, FlashPlate, [125I]-S36057; settings: compound at 10 μM; [125I]-S36057
T6 construct: purchased Perkin Elmer Biosignal
Summary of the method: as §2

Human Melanocortin (MC3) = target: T7, Human Melanocortin (MC3) (Homo sapiens, UniProt P41968); experiment: Radioligand binding, human melanocortin MC3 membranes, FlashPlate, [125I]-NDP-αMSH; settings: compound at 10 μM; [125I]-NDP-αMSH
T7 construct: purchased Perkin Elmer Biosignal
Summary of the method: as §2

Human melanocortin (MC5) = target: T8, Human melanocortin (MC5) (Homo sapiens, UniProt P33032); experiment: Radioligand binding, human melanocortin MC5 membranes, FlashPlate, [125I]-NDP-αMSH; settings: compound at 10 μM; [125I]-NDP-αMSH
T8 construct: purchased Perkin Elmer Biosignal
Summary of the method: as §2

Human Melanocortin (MC4) = target: T9, Human Melanocortin (MC4) (Homo sapiens, UniProt P32245); experiment: Radioligand binding, human melanocortin MC4 membranes, FlashPlate, [125I]-NDP-αMSH; settings: compound at 10 μM; [125I]-NDP-αMSH
T9 construct: purchased Perkin Elmer Biosignal
Summary of the method: as §2

Mouse urotensin (mUR2) = target: T10, Mouse urotensin (mUR2) (Mus musculus, UniProt Q8VIH9); experiment: Radioligand binding, mouse urotensin mUR2 membranes, FlashPlate, [125I]-Urotensin II; settings: compound at 10 μM; [125I]-Urotensin II
T10 construct: purchased Perkin Elmer Biosignal
T10 sequence (Q8VIH9 1-385): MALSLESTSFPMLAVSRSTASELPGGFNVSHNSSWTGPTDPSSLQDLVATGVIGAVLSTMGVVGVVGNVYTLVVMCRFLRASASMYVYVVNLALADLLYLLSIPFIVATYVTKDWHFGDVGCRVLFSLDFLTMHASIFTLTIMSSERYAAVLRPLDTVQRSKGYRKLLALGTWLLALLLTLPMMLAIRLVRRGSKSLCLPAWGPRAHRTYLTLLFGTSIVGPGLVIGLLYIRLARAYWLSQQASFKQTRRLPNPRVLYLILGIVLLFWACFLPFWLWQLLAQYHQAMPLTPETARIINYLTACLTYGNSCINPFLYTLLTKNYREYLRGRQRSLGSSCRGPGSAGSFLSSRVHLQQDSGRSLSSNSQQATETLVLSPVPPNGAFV
Summary of the method: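 Cloned mouse urotensin (mUR2) receptor membranes from Perkin Elmer Biosignal were immobilized in FlashPlate microplates using a proprietary coating. Each well got 19.5 μl buffer, then 0.5 μl of DMSO, reference ligand, or compound. Adding 5 μl of [125I]-Urotensin II, diluted to 5× final concentration in binding buffer, started binding. Plates were sealed with TopSeal-A and incubated 1 hour at room temperature in the dark. Wells were counted for 30 seconds each on a TopCount after a 60-second delay, and percentage inhibition was calculated.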

[2] = target: T11, Human neuropeptide Y (NPY-Y1) (Homo sapiens, UniProt P25929); experiment: Radioligand binding, human neuropeptide Y NPY-Y1 membranes, FlashPlate, [125I]-PYY; settings: compound at 10 μM; [125I]-PYY
T11 construct: purchased Perkin Elmer Biosignal
T11 sequence (P25929 1-384): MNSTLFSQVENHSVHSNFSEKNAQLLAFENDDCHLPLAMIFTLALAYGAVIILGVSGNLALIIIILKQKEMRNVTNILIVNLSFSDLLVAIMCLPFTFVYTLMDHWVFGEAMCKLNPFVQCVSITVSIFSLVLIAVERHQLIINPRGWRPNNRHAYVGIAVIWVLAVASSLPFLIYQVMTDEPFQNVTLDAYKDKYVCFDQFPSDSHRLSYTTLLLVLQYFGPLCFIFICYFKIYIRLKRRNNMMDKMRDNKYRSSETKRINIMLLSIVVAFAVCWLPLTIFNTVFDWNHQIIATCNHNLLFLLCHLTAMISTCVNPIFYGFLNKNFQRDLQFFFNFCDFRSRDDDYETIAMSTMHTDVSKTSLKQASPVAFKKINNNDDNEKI
Summary of the method: as §2

T6 sequence (Q99705 whole entry): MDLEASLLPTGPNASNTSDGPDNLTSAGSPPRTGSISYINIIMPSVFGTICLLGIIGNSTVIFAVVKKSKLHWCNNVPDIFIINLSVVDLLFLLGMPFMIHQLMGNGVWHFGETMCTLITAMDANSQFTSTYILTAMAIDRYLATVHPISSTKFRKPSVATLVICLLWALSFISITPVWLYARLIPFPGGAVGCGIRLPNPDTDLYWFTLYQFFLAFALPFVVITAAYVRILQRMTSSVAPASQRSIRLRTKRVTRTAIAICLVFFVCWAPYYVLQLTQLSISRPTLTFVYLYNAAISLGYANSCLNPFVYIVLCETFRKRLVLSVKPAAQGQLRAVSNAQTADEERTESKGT
T7 sequence (P41968 whole entry): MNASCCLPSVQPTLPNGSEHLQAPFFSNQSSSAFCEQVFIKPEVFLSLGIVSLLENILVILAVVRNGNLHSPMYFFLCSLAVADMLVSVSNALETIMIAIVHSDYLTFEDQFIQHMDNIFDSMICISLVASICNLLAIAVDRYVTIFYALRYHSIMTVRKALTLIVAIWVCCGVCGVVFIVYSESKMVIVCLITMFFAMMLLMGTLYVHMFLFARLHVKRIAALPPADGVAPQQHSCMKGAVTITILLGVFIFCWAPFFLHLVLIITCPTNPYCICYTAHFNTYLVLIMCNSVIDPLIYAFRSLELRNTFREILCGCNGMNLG
T9 sequence (P32245 whole entry): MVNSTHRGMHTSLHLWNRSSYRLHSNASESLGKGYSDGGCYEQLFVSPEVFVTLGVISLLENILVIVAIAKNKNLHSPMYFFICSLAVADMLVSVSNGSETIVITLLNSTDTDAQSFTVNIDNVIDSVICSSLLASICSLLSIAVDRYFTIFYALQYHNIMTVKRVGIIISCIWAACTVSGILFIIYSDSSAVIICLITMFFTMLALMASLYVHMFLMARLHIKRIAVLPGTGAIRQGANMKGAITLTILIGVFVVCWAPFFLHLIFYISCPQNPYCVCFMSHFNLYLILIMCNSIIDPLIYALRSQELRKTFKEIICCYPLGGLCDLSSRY
T4 sequence (P41146 whole entry): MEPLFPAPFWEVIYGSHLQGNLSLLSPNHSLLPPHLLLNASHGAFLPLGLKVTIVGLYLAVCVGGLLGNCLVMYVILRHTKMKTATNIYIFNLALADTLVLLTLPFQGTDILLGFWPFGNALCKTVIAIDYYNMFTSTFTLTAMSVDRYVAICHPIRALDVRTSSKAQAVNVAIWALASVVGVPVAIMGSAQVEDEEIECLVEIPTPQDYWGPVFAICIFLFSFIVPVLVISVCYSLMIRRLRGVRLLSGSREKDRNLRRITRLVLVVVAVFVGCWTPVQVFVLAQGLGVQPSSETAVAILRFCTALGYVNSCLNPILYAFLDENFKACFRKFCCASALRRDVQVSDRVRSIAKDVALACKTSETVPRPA
T5 sequence (P41145 whole entry): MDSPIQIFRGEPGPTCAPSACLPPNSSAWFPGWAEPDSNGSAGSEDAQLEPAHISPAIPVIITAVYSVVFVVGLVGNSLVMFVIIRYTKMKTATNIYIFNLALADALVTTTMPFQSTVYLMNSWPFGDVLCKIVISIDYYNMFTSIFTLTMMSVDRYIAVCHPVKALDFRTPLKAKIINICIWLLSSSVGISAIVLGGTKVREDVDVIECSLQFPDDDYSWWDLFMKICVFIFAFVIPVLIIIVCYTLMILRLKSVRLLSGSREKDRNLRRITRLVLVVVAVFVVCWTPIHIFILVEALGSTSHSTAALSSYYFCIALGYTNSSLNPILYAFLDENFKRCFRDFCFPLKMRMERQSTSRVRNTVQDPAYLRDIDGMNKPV
T1 sequence (P25103 whole entry): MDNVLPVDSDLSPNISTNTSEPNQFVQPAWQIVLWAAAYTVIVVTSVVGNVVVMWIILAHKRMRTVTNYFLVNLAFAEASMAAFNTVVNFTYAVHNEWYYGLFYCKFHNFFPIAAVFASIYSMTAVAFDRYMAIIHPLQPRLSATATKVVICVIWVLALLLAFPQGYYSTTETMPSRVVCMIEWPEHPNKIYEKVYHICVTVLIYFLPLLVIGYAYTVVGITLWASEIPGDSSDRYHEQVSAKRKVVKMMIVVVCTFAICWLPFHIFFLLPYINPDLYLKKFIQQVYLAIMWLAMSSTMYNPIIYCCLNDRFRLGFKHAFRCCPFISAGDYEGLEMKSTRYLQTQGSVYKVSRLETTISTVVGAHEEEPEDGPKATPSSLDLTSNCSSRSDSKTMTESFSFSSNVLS
T8 sequence (P33032 whole entry): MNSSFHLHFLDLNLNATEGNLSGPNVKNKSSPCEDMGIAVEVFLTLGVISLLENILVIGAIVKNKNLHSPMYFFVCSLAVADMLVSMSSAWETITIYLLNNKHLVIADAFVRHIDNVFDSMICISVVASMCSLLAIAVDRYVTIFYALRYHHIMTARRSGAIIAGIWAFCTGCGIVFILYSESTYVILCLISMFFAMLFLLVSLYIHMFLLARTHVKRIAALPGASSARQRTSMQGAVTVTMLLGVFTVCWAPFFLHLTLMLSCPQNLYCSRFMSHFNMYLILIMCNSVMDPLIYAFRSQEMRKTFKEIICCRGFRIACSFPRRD
T3 sequence (P35372 whole entry): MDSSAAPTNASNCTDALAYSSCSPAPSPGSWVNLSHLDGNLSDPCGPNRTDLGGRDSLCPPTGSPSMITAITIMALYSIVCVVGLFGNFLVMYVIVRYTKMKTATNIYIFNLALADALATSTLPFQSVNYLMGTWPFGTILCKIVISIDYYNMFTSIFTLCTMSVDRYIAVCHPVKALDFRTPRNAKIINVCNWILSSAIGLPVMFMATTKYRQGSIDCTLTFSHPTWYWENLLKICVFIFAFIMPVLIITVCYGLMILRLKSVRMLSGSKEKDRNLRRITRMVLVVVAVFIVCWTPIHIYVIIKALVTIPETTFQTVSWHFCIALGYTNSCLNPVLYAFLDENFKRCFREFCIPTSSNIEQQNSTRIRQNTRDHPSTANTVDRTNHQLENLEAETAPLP
T2 sequence (P41143 whole entry): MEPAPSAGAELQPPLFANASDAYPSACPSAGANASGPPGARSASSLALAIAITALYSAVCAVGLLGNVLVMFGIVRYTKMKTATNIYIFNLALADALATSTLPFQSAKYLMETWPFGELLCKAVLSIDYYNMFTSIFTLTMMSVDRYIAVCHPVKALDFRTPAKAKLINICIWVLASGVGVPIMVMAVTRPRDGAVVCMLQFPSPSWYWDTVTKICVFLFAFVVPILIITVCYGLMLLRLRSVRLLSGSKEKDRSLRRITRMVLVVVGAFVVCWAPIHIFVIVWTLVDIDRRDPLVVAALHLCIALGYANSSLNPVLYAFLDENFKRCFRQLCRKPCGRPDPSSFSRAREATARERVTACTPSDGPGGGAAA

COC[C@H]1OC(OCc2ccc(-c3ccccc3)cc2)[C@H](NC(=O)CCNC(=N)N)[C@@H](OCc2cccc(O)c2)[C@@H]1O (stereo partly shown) [compound 130]
A8 radioligand binding, percentage inhibition (Human neurokinin (NK1)): − (“−” indicates less than 50% inhibition at 10 μM) | A1 radioligand binding, percentage inhibition (Human δ-opioid (DOP)): − (“−” indicates less than 50% inhibition at 10 μM) | A7 radioligand binding, percentage inhibition (Human μ-opioid (MOP)): + (“+” indicates greater than 50% inhibition at 10 μM) | A10 radioligand binding, percentage inhibition (Human opioid (ORL1)): − (“−” indicates less than 50% inhibition at 10 μM) | A2 radioligand binding, percentage inhibition (Human κ-Opioid (KOP)): − (“−” indicates less than 50% inhibition at 10 μM) | A6 radioligand binding, percentage inhibition [1]: − (“−” indicates less than 50% inhibition at 10 μM) | A3 radioligand binding, percentage inhibition (Human Melanocortin (MC3)): − (“−” indicates less than 50% inhibition at 10 μM) | A5 radioligand binding, percentage inhibition (Human melanocortin (MC5)): − (“−” indicates less than 50% inhibition at 10 μM) | A4 radioligand binding, percentage inhibition (Human Melanocortin (MC4)): − (“−” indicates less than 50% inhibition at 10 μM) | A11 radioligand binding, percentage inhibition (Mouse urotensin (mUR2)): − (“−” indicates less than 50% inhibition at 10 μM) | A9 radioligand binding, percentage inhibition [2]: − (“−” indicates less than 50% inhibition at 10 μM)

COC[C@H]1OC(OCc2ccc(-c3ccccc3)cc2)[C@H](NC(=O)CCCNC(=N)N)[C@@H](OCc2cccc(O)c2)[C@@H]1O (stereo partly shown) [compound 132]
A8 radioligand binding, percentage inhibition (Human neurokinin (NK1)): − (“−” indicates less than 50% inhibition at 10 μM) | A1 radioligand binding, percentage inhibition (Human δ-opioid (DOP)): − (“−” indicates less than 50% inhibition at 10 μM) | A7 radioligand binding, percentage inhibition (Human μ-opioid (MOP)): + (“+” indicates greater than 50% inhibition at 10 μM) | A10 radioligand binding, percentage inhibition (Human opioid (ORL1)): − (“−” indicates less than 50% inhibition at 10 μM) | A2 radioligand binding, percentage inhibition (Human κ-Opioid (KOP)): + (“+” indicates greater than 50% inhibition at 10 μM) | A6 radioligand binding, percentage inhibition [1]: − (“−” indicates less than 50% inhibition at 10 μM) | A3 radioligand binding, percentage inhibition (Human Melanocortin (MC3)): − (“−” indicates less than 50% inhibition at 10 μM) | A5 radioligand binding, percentage inhibition (Human melanocortin (MC5)): − (“−” indicates less than 50% inhibition at 10 μM) | A4 radioligand binding, percentage inhibition (Human Melanocortin (MC4)): − (“−” indicates less than 50% inhibition at 10 μM) | A11 radioligand binding, percentage inhibition (Mouse urotensin (mUR2)): − (“−” indicates less than 50% inhibition at 10 μM) | A9 radioligand binding, percentage inhibition [2]: − (“−” indicates less than 50% inhibition at 10 μM)

COC[C@H]1OC(OCc2ccc3ccccc3c2)[C@H](NC(=O)CNC(=N)N)[C@@H](OCc2cccc(O)c2)[C@@H]1O (stereo partly shown) [compound 133]
A8 radioligand binding, percentage inhibition (Human neurokinin (NK1)): − (“−” indicates less than 50% inhibition at 10 μM) | A1 radioligand binding, percentage inhibition (Human δ-opioid (DOP)): − (“−” indicates less than 50% inhibition at 10 μM) | A7 radioligand binding, percentage inhibition (Human μ-opioid (MOP)): + (“+” indicates greater than 50% inhibition at 10 μM) | A10 radioligand binding, percentage inhibition (Human opioid (ORL1)): − (“−” indicates less than 50% inhibition at 10 μM) | A2 radioligand binding, percentage inhibition (Human κ-Opioid (KOP)): − (“−” indicates less than 50% inhibition at 10 μM) | A6 radioligand binding, percentage inhibition [1]: − (“−” indicates less than 50% inhibition at 10 μM) | A3 radioligand binding, percentage inhibition (Human Melanocortin (MC3)): − (“−” indicates less than 50% inhibition at 10 μM) | A5 radioligand binding, percentage inhibition (Human melanocortin (MC5)): − (“−” indicates less than 50% inhibition at 10 μM) | A4 radioligand binding, percentage inhibition (Human Melanocortin (MC4)): − (“−” indicates less than 50% inhibition at 10 μM) | A11 radioligand binding, percentage inhibition (Mouse urotensin (mUR2)): − (“−” indicates less than 50% inhibition at 10 μM) | A9 radioligand binding, percentage inhibition [2]: − (“−” indicates less than 50% inhibition at 10 μM)

COC[C@H]1OC(OCc2ccc3ccccc3c2)[C@H](NC(=O)CCCN)[C@@H](OCc2cccc(O)c2)[C@@H]1O (stereo partly shown) [compound 134]
A8 radioligand binding, percentage inhibition (Human neurokinin (NK1)): − (“−” indicates less than 50% inhibition at 10 μM) | A1 radioligand binding, percentage inhibition (Human δ-opioid (DOP)): − (“−” indicates less than 50% inhibition at 10 μM) | A7 radioligand binding, percentage inhibition (Human μ-opioid (MOP)): + (“+” indicates greater than 50% inhibition at 10 μM) | A10 radioligand binding, percentage inhibition (Human opioid (ORL1)): − (“−” indicates less than 50% inhibition at 10 μM) | A2 radioligand binding, percentage inhibition (Human κ-Opioid (KOP)): − (“−” indicates less than 50% inhibition at 10 μM) | A6 radioligand binding, percentage inhibition [1]: − (“−” indicates less than 50% inhibition at 10 μM) | A3 radioligand binding, percentage inhibition (Human Melanocortin (MC3)): − (“−” indicates less than 50% inhibition at 10 μM) | A5 radioligand binding, percentage inhibition (Human melanocortin (MC5)): − (“−” indicates less than 50% inhibition at 10 μM) | A4 radioligand binding, percentage inhibition (Human Melanocortin (MC4)): − (“−” indicates less than 50% inhibition at 10 μM) | A11 radioligand binding, percentage inhibition (Mouse urotensin (mUR2)): − (“−” indicates less than 50% inhibition at 10 μM) | A9 radioligand binding, percentage inhibition [2]: − (“−” indicates less than 50% inhibition at 10 μM)

COC[C@H]1OC(OCc2ccc3ccccc3c2)[C@H](NC(=O)CCCNC(=N)N)[C@@H](OCc2cccc(O)c2)[C@@H]1O (stereo partly shown) [compound 135]
A8 radioligand binding, percentage inhibition (Human neurokinin (NK1)): − (“−” indicates less than 50% inhibition at 10 μM) | A1 radioligand binding, percentage inhibition (Human δ-opioid (DOP)): − (“−” indicates less than 50% inhibition at 10 μM) | A7 radioligand binding, percentage inhibition (Human μ-opioid (MOP)): + (“+” indicates greater than 50% inhibition at 10 μM) | A10 radioligand binding, percentage inhibition (Human opioid (ORL1)): − (“−” indicates less than 50% inhibition at 10 μM) | A2 radioligand binding, percentage inhibition (Human κ-Opioid (KOP)): − (“−” indicates less than 50% inhibition at 10 μM) | A6 radioligand binding, percentage inhibition [1]: − (“−” indicates less than 50% inhibition at 10 μM) | A3 radioligand binding, percentage inhibition (Human Melanocortin (MC3)): − (“−” indicates less than 50% inhibition at 10 μM) | A5 radioligand binding, percentage inhibition (Human melanocortin (MC5)): − (“−” indicates less than 50% inhibition at 10 μM) | A4 radioligand binding, percentage inhibition (Human Melanocortin (MC4)): − (“−” indicates less than 50% inhibition at 10 μM) | A11 radioligand binding, percentage inhibition (Mouse urotensin (mUR2)): − (“−” indicates less than 50% inhibition at 10 μM) | A9 radioligand binding, percentage inhibition [2]: − (“−” indicates less than 50% inhibition at 10 μM)
